{
  "source": "patent US8263738B2",
  "about": "“Estrogen receptors and methods of use” (Creighton University, priority 2004, dated 2012)",
  "key": {"ER-α36 [1]": {"target": "T1, ER-α36 (Homo sapiens, UniProt P03372, I452L)", "T1 construct": "expressed in transfected cells; transient transfectants for A11", "T1 sequence (P03372 1-310 isoform P03372-4 I279L)": "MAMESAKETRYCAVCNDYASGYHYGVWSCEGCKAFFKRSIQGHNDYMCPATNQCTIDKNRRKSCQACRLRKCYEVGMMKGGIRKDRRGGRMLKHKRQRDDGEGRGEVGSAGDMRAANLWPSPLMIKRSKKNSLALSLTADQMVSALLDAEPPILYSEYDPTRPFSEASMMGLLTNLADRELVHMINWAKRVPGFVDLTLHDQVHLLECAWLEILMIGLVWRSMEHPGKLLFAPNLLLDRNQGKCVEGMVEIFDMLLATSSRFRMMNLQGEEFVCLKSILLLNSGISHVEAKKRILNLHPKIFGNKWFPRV", "assay": "Western blot of MAPK pathway activation (ERK1/2, Mek1 phosphorylation) in ER-α36 transfected HEK293 cells", "type": "cell-based", "procedure": "(§1) Cell culture, establishment of stable cell lines and membrane-labeling with E2-BSA-FITC. MCF10A cells were obtained from Karmanos Cancer Institute at Detroit, Mich., and human embryonic kidney 293 cells, and all breast cancer cells were obtained from ATCC. All cells were maintained at 37° C. in a 5% CO2 atmosphere in appropriate tissue culture medium. […] The ER-α36 expression vector was constructed by cloning a 1.1-kb EcoRI-BamHI cDNA fragment of ER-α36 from pBS-ER-α36 into the EcoRI and BamHI sites of mammalian expression vector pCB6+. Empty vector was also transfected into cells to serve as controls. Forty-eight hours after transfection, the cells were replated and selected with 500 μg/ml of G418 (Invitrogen) for two weeks. The resulting uncloned population of G418-resistant cells was expanded to generate cells used for further analysis.\n(§2) Western blot analysis, indirect immunofluorescence and antibodies. For Western blot analysis, cells were disrupted with RIPA buffer, boiled in gel loading buffer and separated on a 10% SDS-PAGE gel. After electrophoresis, the proteins were transferred to a PVDF membrane (Millipore). The filter was probed with various antibodies and visualized with appropriate HRP-conjugated secondary antibodies (Santa Cruz Biotechnology) and ECL reagents (Perkin Elmer Life Sciences).\n(§3) Antibody against ERK1/2 (K-23) was purchased from Santa Cruz Biotechnology. Antibodies used to analyze activation of the MAP kinase pathway included the phosphorylated forms of Mek1 and ERK1/2, and were purchased from Cell Signaling Technology. Rat anti-ER-α antibody (H222) was purchased from Research Diagnostic Inc. Antibodies of COPB (Y-20), mSin3A (AK-11), and 5′ nucleotidase (H-300) were purchased from Santa Cruz biotechnology Inc. D4-GDI (clone 97A1015) was obtained from Upstate Biotechnology."}, "ER-α36 transfected cells": {"system": "ER-α36 transfected cells", "conditions": "for block of E2β-stimulated cell growth by anti-estrogens: 10 nM anti-estrogen with E2β; for block of E2β-stimulated cell growth by anti-estrogens / growth of ER-α36 transfected cells, anti-estrogen alone: 48 hours; for growth of ER-α36 transfected cells, anti-estrogen alone: 10 nM"}, "[2]": {"system": "control cells transfected with empty vector", "assay": "GAL-Elk / 5×Gal4-LUC luciferase reporter in control cells transfected with empty vector", "conditions": "E2β"}, "[3]": {"system": "control cells transfected with empty expression vector", "assay": "MTT proliferation assay, control cells transfected with empty expression vector", "type": "cell-based, human", "conditions": "E2β"}, "[4]": {"system": "ER-α66 negative MDA-MB-231 cells", "assay": "Western blot of ERK1/2 phosphorylation in MDA-MB-231 cells", "type": "cell-based, human", "conditions": "1 nM E2β, serum starved cells, different time periods", "excerpt": "For Western blot analysis, cells were disrupted with RIPA buffer, boiled in gel loading buffer and separated on a 10% SDS-PAGE gel. After electrophoresis, the proteins were transferred to a PVDF membrane (Millipore). The filter was probed with antibody against ERK1/2 (K-23) (Santa Cruz Biotechnology), or antibody used against the phosphorylated form of ERK1/2 (Cell Signaling Technology)."}, "[5]": {"system": "ER-α66 negative MDA-MB-231 cells", "assay": "Anchorage-independent growth in soft agar", "type": "cell-based, human", "conditions": "three weeks", "excerpt": "The cells were then overlaid onto a 0.7% (wt/vol) agar containing phenol-red free DMEM/F12 medium plus 10% E2-free fetal calf serum in five replica 60 mm dishes. […] After three weeks, colonies were scored using an inverted microscope."}, "[6]": {"system": "control 293 cells transfected with empty expression vector", "assay": "Western blot of ERK1/2 phosphorylation in control 293 cells transfected with empty vector", "type": "cell-based, human", "procedure": "as §1, §2\nAntibody against ERK1/2 (K-23) was purchased from Santa Cruz Biotechnology. […]"}, "ER-α36 [7]": {"target": "T2, ER-α36 (Homo sapiens, UniProt P03372)", "T2 construct": "expressed in transfected cells; transient transfectants for A11", "T2 sequence (P03372 1-310 isoform P03372-4 I279L)": "T1 sequence (P03372 1-310 isoform P03372-4 I279L)", "assay": "Western blot of MAPK pathway activation (ERK1/2, Mek1 phosphorylation) in ER-α36 transfected HEK293 cells", "type": "cell-based", "conditions": "treated for 10 minutes", "procedure": "as §1, §2, §3"}, "[8]": {"system": "neurons of ER-α gene knockout (aERKO) mice", "conditions": "cited from earlier work"}, "MDA-MB-231 cells": {"system": "MDA-MB-231 cells", "conditions": "high concentration of Tamoxifen; cited from earlier work"}},
  "data": [
    {"compound": "4OH-Tamoxifen", "values": [
      {"measurement": "block of ERK1/2 activation mediated by ER-α36 by anti-estrogens", "setting": "ER-α36 [1]", "result": "did not block"},
      {"measurement": "effect on ERK1/2 activation compared to E2β alone", "setting": "ER-α36 [1]", "result": "even stronger"},
      {"measurement": "block of E2β-stimulated cell growth by anti-estrogens", "setting": "ER-α36 transfected cells", "result": "did not block"},
      {"measurement": "growth of ER-α36 transfected cells, anti-estrogen alone", "setting": "ER-α36 transfected cells", "result": "strongly stimulated growth"}
    ]},
    {"compound": "C[C@]12CC[C@@H]3c4ccc(O)cc4CC[C@H]3[C@@H]1CC[C@@H]2O", "note": "[E2β, 17β-estradiol]", "values": [
      {"measurement": "transcription activity of the Elk/Gal4 fusion protein in control cells", "setting": "[2]", "result": "had no effect"},
      {"measurement": "growth of control cells", "setting": "[3]", "result": "had no effect"},
      {"measurement": "phosphorylation of ERK1/2 in MDA-MB-231 cells", "setting": "[4]", "result": "induced rapid phosphorylation"},
      {"measurement": "anchorage-independent growth in soft agar", "setting": "[5]; 1 nM E2β", "result": "strongly promoted"},
      {"measurement": "increase in the phosphorylation of ERK1/2 in control cells", "setting": "[6]; E2β 10 nM, empty vector cells", "result": "not in the control cells"}
    ]},
    {"compound": "C[C@]12CC[C@@H]3c4ccc(O)cc4CC[C@H]3[C@@H]1[C@@H](O)[C@@H](O)[C@@H]2O", "note": "[E4, estetrol]", "values": [
      {"measurement": "activation of ERK1/2 phosphorylation by estrogens", "setting": "ER-α36 [7]", "result": "activated ERK1/2 phosphorylation at a very similar level"}
    ]},
    {"compound": "C[C@]12CC[C@@H]3c4ccc(O)cc4C[C@@H](CCCCCCCCC[S+]([O-])CCCC(F)(F)C(F)(F)F)[C@H]3[C@@H]1CC[C@@H]2O", "note": "(some centres unmarked) [ICI-182, 780]", "values": [
      {"measurement": "block of E2β-mediated rapid actions in neurons", "setting": "[8]", "result": "not blocked"}
    ]},
    {"compound": "CC/C(=C(\\c1ccccc1)c1ccc(OCCN(C)C)cc1)c1ccccc1", "note": "[Tamoxifen]", "values": [
      {"measurement": "block of E2β-stimulated cell growth by anti-estrogens", "setting": "ER-α36 transfected cells", "result": "did not block"},
      {"measurement": "growth of ER-α36 transfected cells, anti-estrogen alone", "setting": "ER-α36 transfected cells", "result": "strongly stimulated growth"},
      {"measurement": "effect of Tamoxifen on E2β-promoted growth in soft agar", "setting": "[5]; 1 nM E2β combined with 1 nM tamoxifen", "result": "inhibits the effect of E2β"},
      {"measurement": "apoptosis in MDA-MB-231 cells", "setting": "MDA-MB-231 cells", "result": "induce apoptosis"},
      {"measurement": "ERK1/2 activation by Tamoxifen in control cells", "setting": "[6]; same concentration (1 μM), empty vector 293 cells", "result": "had no effect"}
    ]},
    {"compound": "N#CC(=C(/N)Sc1ccccc1N)/C(C#N)=C(/N)Sc1ccccc1N", "note": "[UO126]", "values": [
      {"measurement": "inhibition of E2β-stimulated cell growth", "setting": "ER-α36 transfected cells; 7.2 nM UO126, 48 hours", "result": "strongly inhibited"}
    ]}
  ]
}
